Reference: patent publication US10316039B2, “P2X3 and/or P2X2/3 compounds and methods” (Asana Biosciences, LLC, priority 2013, dated 2019)
pIC50: −log10 of the molar value.

Experiments:
[1] = molecular target: T1, P2X3 (UniProt P56373); experiment: P2X3 FLIPR intracellular calcium assay; format: cell-based; conditions: agonist at EC75, species (human or rat) not given
T1 sequence (P56373 1-397): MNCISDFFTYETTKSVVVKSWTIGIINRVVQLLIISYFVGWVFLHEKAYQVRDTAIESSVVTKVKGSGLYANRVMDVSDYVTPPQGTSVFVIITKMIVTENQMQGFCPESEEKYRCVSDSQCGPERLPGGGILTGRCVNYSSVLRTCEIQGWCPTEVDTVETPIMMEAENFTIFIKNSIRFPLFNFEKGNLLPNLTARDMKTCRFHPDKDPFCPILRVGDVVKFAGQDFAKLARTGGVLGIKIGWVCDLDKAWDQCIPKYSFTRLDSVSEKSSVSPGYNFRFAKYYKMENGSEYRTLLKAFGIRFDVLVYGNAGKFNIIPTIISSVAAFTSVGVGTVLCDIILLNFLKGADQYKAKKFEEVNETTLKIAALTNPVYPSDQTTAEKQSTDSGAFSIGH
How it was run: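 Human P2X3-HEK, human P2X2/3-TRex293, rat P2X2/3-TRex293 or rat P2X3 TRex-CHO cells loaded with Calcium 4 dye (1.8 mM probenecid, pH 7.4).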

[2] = molecular target: T2, P2X2/3 (Homo sapiens, UniProt P56373+Q9UBL9); experiment: P2X2/3 FLIPR intracellular calcium assay; format: cell-based; conditions: agonist at EC75, species (human or rat) not given
T2 sequence (Q9UBL9 1-471): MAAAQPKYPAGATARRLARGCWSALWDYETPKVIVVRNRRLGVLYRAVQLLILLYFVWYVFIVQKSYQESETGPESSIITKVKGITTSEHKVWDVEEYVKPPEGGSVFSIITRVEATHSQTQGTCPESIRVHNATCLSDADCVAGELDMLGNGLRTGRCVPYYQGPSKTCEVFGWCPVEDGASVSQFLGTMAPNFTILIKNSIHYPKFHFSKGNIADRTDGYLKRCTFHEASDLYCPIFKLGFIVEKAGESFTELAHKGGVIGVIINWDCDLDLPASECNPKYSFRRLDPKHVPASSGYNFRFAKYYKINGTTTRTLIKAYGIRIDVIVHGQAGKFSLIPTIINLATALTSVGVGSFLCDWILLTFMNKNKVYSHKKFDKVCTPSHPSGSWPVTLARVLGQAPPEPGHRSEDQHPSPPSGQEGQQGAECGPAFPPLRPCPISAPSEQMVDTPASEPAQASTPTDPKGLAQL
T2 sequence (P56373 1-397): T1 sequence (P56373 1-397)
How it was run: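 Stable human P2X2/3 TRex293 cells (doxycycline-induced) loaded with Calcium 4 dye; compounds, 11-point half-log series from 2 mM top stock, preincubated 15 min at RT in HBSS/HEPES pH 7.4 with 1.8 mM CaCl2. Agonist added at EC75; fluorescence change versus no-compound wells gave IC50.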

Cc1ccc(CNC(=O)c2cc(-c3cnn(C)c3)c3ncc(-c4ccc(C)s4)n3c2)cn1 [Example 98]
pIC50 [1]: 5.00 to 6.00 | pIC50 [2]: 6.00 to 7.00

Cc1ccc(CNC(=O)c2cc(N3CCC(C)(C(N)=O)CC3)c3ncc(-c4ccc(C)s4)n3c2)cn1 [Example 148]
pIC50 [1]: 7.00 to 9.00 | pIC50 [2]: 7.00 to 9.00

Cc1ccc(CNC(=O)c2cc(-n3nnnc3CO)c3ncc(-c4ccc(C)s4)n3c2)cn1 [Example 17, 8-(5-(Hydroxymethyl)-1H-tetrazol-1-yl)-N-((6-methylpyridin-3-yl)methyl)-3-(5-methylthiophen-2-yl)imidazo[1,2-a]pyridine-6-carboxamide]
pIC50 [1]: 6.00 to 7.00 | pIC50 [2]: 6.00 to 7.00

Cc1ncc(CNC(=O)c2cc(-n3nncc3C(F)F)c3ncc(-c4ncc(C)s4)n3c2)cn1 [Example 47]
pIC50 [1]: 7.00 to 9.00 | pIC50 [2]: 7.00 to 9.00

Cc1ccc(-c2cc(C(=O)N[C@@H](C)c3nnc[nH]3)cn3c(-c4ccc(C)s4)cnc23)s1 [Example 101]
pIC50 [1]: 7.00 to 9.00 | pIC50 [2]: 7.00 to 9.00

Cc1ccccc1-c1cnc2c(N3CCC(C)CC3)cc(C(=O)N[C@@H](C)c3nnc[nH]3)cn12 [Example 15, (S)—N-(1-(4H-1,2,4-Triazol-3-yl)ethyl)-8-(4-methylpiperidin-1-yl)-3-(o-tolyl)imidazo[1,2-a]pyridine-6-carboxamide]
pIC50 [1]: 6.00 to 7.00 | pIC50 [2]: 5.00 to 6.00

Cc1ccc(-c2cnc3c(-n4nnnc4C4CCC4)cc(C(=O)NCc4ccn(C)c(=O)c4)cn23)s1 [Example 161]
pIC50 [1]: < 5.00 | pIC50 [2]: 7.00 to 9.00

CCc1nnnn1-c1cc(C(=O)NCc2ccc(C3CC3)nc2)cn2c(-c3ccc(C)s3)cnc12 [Example 154]
pIC50 [1]: 6.00 to 7.00 | pIC50 [2]: 6.00 to 7.00

Cc1cnc(CNC(=O)c2cc(-n3nncc3C(F)F)c3ncc(-c4ccc(C)s4)n3c2)cn1 [Example 32]
pIC50 [1]: 7.00 to 9.00 | pIC50 [2]: 7.00 to 9.00

Cc1cnc(CNC(=O)c2cc(-n3nncc3C(F)F)c3ncc(-c4ccc(C)o4)n3c2)cn1 [Example 78]
pIC50 [1]: 7.00 to 9.00 | pIC50 [2]: 7.00 to 9.00

Cc1ccc(-c2cnc3c(-n4nncc4C4CCC4)cc(C(=O)N[C@@H](C)c4nnc[nH]4)cn23)s1 [Example 43]
pIC50 [1]: 7.00 to 9.00 | pIC50 [2]: 7.00 to 9.00

Cc1ccc(-c2cnc3c(-n4nncc4CC(F)(F)F)cc(C(=O)N[C@@H](C)c4nnc[nH]4)cn23)s1 [Example 81]
pIC50 [1]: 7.00 to 9.00 | pIC50 [2]: 7.00 to 9.00

CCCc1nnnn1-c1cc(C(=O)NCc2ccc(C)nc2)cn2c(-c3ccc(C)s3)cnc12 [Example 158]
pIC50 [1]: < 5.00 | pIC50 [2]: 7.00 to 9.00

Cc1ccc(CNC(=O)c2cc(-n3c(C)cnc3C)c3ncc(-c4ccc(C)s4)n3c2)cn1 [Example 2, 8-(2,5-Dimethyl-1H-imidazol-1-yl)-N-((6-methylpyridin-3-yl)methyl)-3-(5-methylthiophen-2-yl)imidazo[1,2-a]pyridine-6-carboxamide]
pIC50 [1]: < 5.00 | pIC50 [2]: 6.00 to 7.00

CCc1nnnn1-c1cc(C(=O)NC(C)c2cnccn2)cn2c(-c3ccc(C)s3)cnc12 (stereo not shown) [Example 162]
pIC50 [1]: 7.00 to 9.00 | pIC50 [2]: 5.00 to 6.00

CCc1nnc(-c2cc(C(=O)NCc3ccc(C)nc3)cn3c(-c4ccc(C)s4)cnc23)o1 [Example 21]
pIC50 [1]: 7.00 to 9.00 | pIC50 [2]: 6.00 to 7.00

COc1ccccc1Nc1cc(C(=O)N[C@@H](C)c2nnc[nH]2)cn2c(-c3ccc(C)s3)cnc12 [Example 96]
pIC50 [1]: 6.00 to 7.00 | pIC50 [2]: 6.00 to 7.00

Cc1ccc(-c2cnc3c(-n4nncc4C(F)F)cc(C(=O)N[C@H](c4nnc[nH]4)C(C)C)cn23)s1 [Example 54]
pIC50 [1]: 7.00 to 9.00 | pIC50 [2]: 7.00 to 9.00

Cc1ccc(-c2cnc3c(-n4nncc4C(F)F)cc(C(=O)N[C@@H](C)c4nnc[nH]4)cn23)s1 [Example 4, (S)—N-(1-(4H-1,2,4-Triazol-3-yl)ethyl)-8-(5-(difluoromethyl)-1H-1,2,3-triazol-1-yl)-3-(5-methylthiophen-2-yl)imidazo[1,2-a]pyridine-6-carboxamide]
pIC50 [1]: 7.00 to 9.00 | pIC50 [2]: 7.00 to 9.00

Cc1ccc(CNC(=O)c2cc(-n3nncc3C(F)F)c3ncc(-c4ncc(C)s4)n3c2)cn1 [Example 36]
pIC50 [1]: 7.00 to 9.00 | pIC50 [2]: 7.00 to 9.00

COc1ncc(CNC(=O)c2cc(-n3nncc3C3CC3)c3ncc(-c4ccc(C)s4)n3c2)cn1 [Example 42]
pIC50 [1]: 7.00 to 9.00 | pIC50 [2]: 7.00 to 9.00

Cc1ccc(-c2cnc3c(-n4nnnc4C(C)C)cc(C(=O)NCc4ccc(C(F)(F)F)nc4)cn23)s1 [Example 152]
pIC50 [1]: < 5.00 | pIC50 [2]: 6.00 to 7.00

Cc1ncc(CNC(=O)c2cc(-n3nnnc3C(F)F)c3ncc(-c4ccc(Cl)s4)n3c2)cn1 [Example 176]
pIC50 [1]: 6.00 to 7.00 | pIC50 [2]: 6.00 to 7.00

COc1ccc(CNC(=O)c2cc(-n3nncc3C(F)F)c3ncc(-c4ccc(C)s4)n3c2)cn1 [Example 83]
pIC50 [1]: 7.00 to 9.00 | pIC50 [2]: 7.00 to 9.00

Cc1ccc(-c2cnc3c(N4CCC(C)(C(N)=O)CC4)cc(C(=O)N[C@@H](C)c4nnc[nH]4)cn23)s1 [Example 12, (S)—N-(1-(4H-1,2,4-Triazol-3-yl)ethyl)-8-(4-carbamoyl-4-methylpiperidin-1-yl)-3-(5-methylthiophen-2-yl)imidazo[1,2-a]pyridine-6-carboxamide]
pIC50 [1]: 7.00 to 9.00 | pIC50 [2]: 7.00 to 9.00

Cc1ncc(CNC(=O)c2cc(-n3nncc3CC(F)(F)F)c3ncc(-c4ccc(C)s4)n3c2)cn1 [Example 80]
pIC50 [1]: 7.00 to 9.00 | pIC50 [2]: 7.00 to 9.00

COC1CCCN(c2cc(C(=O)N[C@@H](C)c3nnc[nH]3)cn3c(-c4ccc(C)s4)cnc23)C1 (stereo partly shown) [Example 141]
pIC50 [1]: 7.00 to 9.00 | pIC50 [2]: 6.00 to 7.00

Cc1cnc(-c2cnc3c(-c4c(C)noc4C)cc(C(=O)N[C@@H](C)c4nnc[nH]4)cn23)s1 [Example 109]
pIC50 [1]: 7.00 to 9.00 | pIC50 [2]: 6.00 to 7.00

CC[C@H](NC(=O)c1cc(-c2c(C)noc2C)c2ncc(-c3ccc(C)s3)n2c1)c1nnc[nH]1 [Example 108]
pIC50 [1]: 7.00 to 9.00 | pIC50 [2]: 7.00 to 9.00

Cc1ncc(CNC(=O)c2cc(-n3nncc3C(C)(F)F)c3ncc(-c4ccc(C)s4)n3c2)cn1 [Example 72]
pIC50 [1]: 7.00 to 9.00 | pIC50 [2]: 7.00 to 9.00

COC1CCN(c2cc(C(=O)N[C@@H](C)c3nnc[nH]3)cn3c(-c4ccc(C)s4)cnc23)C1 (stereo partly shown) [Example 138]
pIC50 [1]: 7.00 to 9.00 | pIC50 [2]: 6.00 to 7.00

Cc1ccc(-c2cnc3c(-n4nncc4C)cc(C(=O)N[C@H](c4nnc[nH]4)C(C)C)cn23)s1 [Example 74]
pIC50 [1]: 6.00 to 7.00 | pIC50 [2]: 5.00 to 6.00

Cc1ncc(CNC(=O)c2cc(-n3nncc3C3CC3)c3ncc(-c4ccc(C)s4)n3c2)cn1 [Example 41]
pIC50 [1]: 7.00 to 9.00 | pIC50 [2]: 7.00 to 9.00

Cc1ccccc1-c1cnc2c(N3CCC(C)CC3)cc(C(=O)NCc3ccc(C)[n+]([O-])c3)cn12 [Example 150]
pIC50 [1]: 7.00 to 9.00 | pIC50 [2]: 6.00 to 7.00

C[C@H](NC(=O)c1cc(-n2nnnc2C(F)F)c2ncc(-c3ccc(Cl)s3)n2c1)c1nnc[nH]1 [Example 170]
pIC50 [1]: 7.00 to 9.00 | pIC50 [2]: 7.00 to 9.00
